No end group written: not given here.

Data set [1] concerns Vero E6 cells. The data set can be described thus: Cellular adsorption of FITC-labeled peptide (fluorescence microscopy). The conditions noted are these: cells treated solely with FITC. In kind it is cell-based, monkey. On the procedure: The cellular adsorption behaviors of K5 were examined using FITC-labeled peptide. Vero E6 cells were incubated in 24-well plates in medium containing 100 μM of FITC-labeled peptide for two different durations: 1 min and 1 h. Subsequently, the cells were washed three times using a PBS solution containing heparin, then stained with DAPI for 30 min. Finally, they were fixed using a 4% PFA solution and then observed using an inverted fluorescence microscope manufactured by Zeiss in Oberkochen, Germany. The control group consisted of cells with only functional peptides added or only FITC added.

The subject of another data set is ACE2. The note with it: short peptide; ref not given ("It was reported"); cited from earlier work. From the text:
To date, only a small number of drug design studies have focused on the SARS-CoV-2 receptor, with a particular emphasis on ACE2 antagonists. Exogenous proteins have disadvantages such as low efficiency in drug delivery and immunogenicity, whereas small-molecule ligands pose limitations such as challenges for manufacturing and increased toxicity. Thus, direct interception of the amino acids of ACE2 could be a simple and effective method. The length of the ACE2-derived peptide (CSNP1) is 16 amino acids.

The subject of another data set is A549 cells. The data set can be described thus: MTT cytotoxicity, A549. In kind it is cell-based, human. The conditions noted are these: 24 h; for cell viability: MTT, % of untreated cells. How it is done: (§1) Vero E6 and A549 cells were cultured in DMEM containing 10% FBS and 5% CO2 at 37 degrees centigrade (°C). The medium was renewed once every three days. The cells were passaged when they attained confluence.
(§2) The cytotoxicity of the functional peptide was assessed using the MTT test. The test cells were seeded onto 96-well plates and grown overnight. The functional peptide K5 was introduced at concentrations of 0.1, 1, 10, and 100 μM for a 24 h incubation. MTT was then added, and cells were incubated for an additional 2 h. The medium was removed and replaced with 100 μL of DMSO. A measurement of absorbance was conducted at 492 nm (OD492) using a microplate reader (EnSpire, Cleveland, OH, USA). Cells without treatment were set as blanks, and the results are expressed as a percentage of the untreated cells.

Data set [2] has as its system Vero E6 cells. Description: MTT cytotoxicity, Vero E6. The note with it: 24 h; for cell viability: MTT, % of untreated cells. The class given is cell-based, monkey. How it is done:
as §1, §2

For data set [3], the target named is ACE2–S protein interaction (Vero E6 cells) (Chlorocebus aethiops, UniProt Q1LZX8). The data set can be described thus: Inhibition of S1 protein-ACE2 interaction, flow cytometry, Vero E6. The class given is cell-based, monkey. The note with it: K5 1 h pre-incubation, S1 protein 10 μg/mL 1 h. (In general: Flow cytometry measures light scatter and fluorescence of single cells or particles in a stream.)

Regarding fluorescein isothiocyanate [FITC], the “cellular adsorption (fluorescence), FITC alone” value in the data set with Vero E6 cells [1] is reported as “did not exhibit any fluorescence”.
With EDLFYQ [SAPs], the IC50 result in the data set with ACE2 is on record as “at the mM level”.
Turning to KYPAY [K5, KYPAY], the cell viability is reported as 93% in the data set on A549 cells (0.1 μM); 100% in the data set on A549 cells (1 μM); 103% in the data set on A549 cells (10 μM); 101% with A549 cells (100 μM); 108% in the data set with Vero E6 cells [2] (0.1 μM); 105% in the data set with Vero E6 cells [2] (1 μM). Moreover, the cell viability in the data set on Vero E6 cells [2] (10 μM) stood at 96%; in the data set with Vero E6 cells [2] (100 μM), 94%. In addition, the “change in cell viability / toxicity” value with A549 cells (0.1-100 μM, physiological pH, A549) is given as “no discernible change in cell viability”; with Vero E6 cells [2] (0.1-100 μM, physiological pH, Vero E6) it was “no discernible change in cell viability”. In data set [3] (FBS, 10 μM), the MFI reduction is 50%. Moreover, the MFI decrease is reported as 70% in data set [3] (FBS, 100 μM) and “approximately 25%” in data set [3] (PBS, 1 μM). In data set [3] (Vero C1008, PBS, 100 μM, read-out: MFI decrease (inhibition)), the inhibition at 100 µM is 78%.

By cell viability is commonly meant a read-out of living cells in per cent, often relative to untreated cells. As a reminder, the inhibition is the percentage by which the read-out fell short of the control.

These data come from publication PMC11242946, “Inhibition of ACE2–S Protein Interaction by a Short Functional Peptide with a Boomerang Structure” (Molecules, 2024).
